Laboratory results taken from publication PMC7617869, “Molecular glues that inhibit deubiquitylase activity and inflammatory signaling” (Nature Structural & Molecular Biology, 2025).
“And” between values parts separate entries of the source, which are not always exact repeats. Equal entries are not always repeated. Each block holds one compound with its values, some of them ahead of it.

Assays:
Type in all cases: biochemical
BRISC [1] = molecular target: T1, BRISC (Homo sapiens, UniProt P46736+Q15018+Q9NXR7); assay: BRISC DUB activity assay (IQF K63-linked diubiquitin); details: for IC50: IQF K63-linked diubiquitin substrate, read-out: IC50, inhibition of BRISC DUB activity; for Mean V0: Fig. 1d
T1 construct: made in house; host or cells: Spodoptera frugiperda (Sf9) insect cells, MultiBac
Experimental: (§1) IQF assays were performed in DUB reaction buffer containing 50 mM HEPES–NaOH pH 7.0, 100 mM NaCl, 0.1 mg ml^−1 BSA, 1 mM DTT and 0.03% v/v Brij-35. […] The final concentration of BRISC WT, all BRISC mutants, HsBRISCΔLoop, MmBRISC and DrBRISCΔNΔC was 1 nM. Other enzymes were tested at the following concentrations: 5 nM ARISC (FL), 10 nM CfBRISCΔNΔC, 250 nM AMSH* (ref. [43]), 500 nM USP2 and 1 μM trypsin (Sigma, 9002-07-7). For Michaelis–Menten experiments, 1 nM BRISC with 0–1 μM IQF K63-linked diubiquitin substrate was used. Michaelis–Menten analyses and Lineweaver–Burk plots were calculated using GraphPad Prism (version 9.0).
(§2) To assess enzymatic activity, BRISC complexes were diluted to concentrations between 1 nM and 50 nM. […] Then, 20-μl enzyme reactions were carried out in 384-well black flat-bottom low-flange plates (Corning, 35373). DUB activity was measured using IQF K63-linked diubiquitin (LifeSensors, DU6303) at 50 nM. Cleaved diubiquitin was monitored by measuring fluorescence intensity (excitation, 544 nm; emission, 575 nm; dichroic mirror, 560 nm). Fluorescence intensity was measured every minute for 30 min at 30 °C. Fluorescence intensity units were plotted against time to generate a linear reaction progress curve, where the initial velocity (V0) corresponds to the gradient of the curve (typically achieved within 15 min). IC50 values were calculated using the GraphPad Prism (version 9.0) built-in dose–response equation for inhibitor concentration versus response (variable slope).

trypsin = assay: Trypsin IQF diubiquitin selectivity assay; details: for TRYPSIN, normalised activity (Ext. 1a): two replicate columns
Experimental: (§3) BRISC DUB activity was measured at room temperature using 1 nM BRISC and 500 nM IQF diubiquitin K63 substrate (LifeSensors, DU6303) in the presence of DMSO and compounds at 10 μM (final concentrations). Assays were performed in 384-well black flat-bottom low-flange plates (Corning, 35373) in buffer containing 50 mM HEPES–NaOH pH 7.0, 100 mM NaCl, 1 mg ml^−1 BSA, 1 mM DTT and 0.03% v/v Brij-35. Then, 10 μl of twofold concentrated enzyme stock was dispensed, followed by transfer of 200 nl of compounds (1 mM stock) using a 384-pin tool and a 15-min incubation at room temperature. Then, 10 μl of twofold concentrated substrate stock was added and the reaction was monitored by measuring fluorescence intensity (excitation, 540 nm; emission, 580 nm) after 20-min incubation at room temperature and ~50% of substrate was consumed. Orthogonal assays for verification of H20 and P12 hit compounds using USP2 (100 nM) and trypsin (125 nM) were performed in identical conditions.
as §1, §2

USP2 = molecular target: T2, USP2 (Homo sapiens, UniProt O75604); assay: USP2 IQF diubiquitin selectivity assay; details: for USP2, normalised activity (Ext. 1a): two replicate columns
T2 construct: His (N, cleaved yes); host or cells: Escherichia coli BL21(DE3)
T2 sequence (O75604 258-605 limits assumed): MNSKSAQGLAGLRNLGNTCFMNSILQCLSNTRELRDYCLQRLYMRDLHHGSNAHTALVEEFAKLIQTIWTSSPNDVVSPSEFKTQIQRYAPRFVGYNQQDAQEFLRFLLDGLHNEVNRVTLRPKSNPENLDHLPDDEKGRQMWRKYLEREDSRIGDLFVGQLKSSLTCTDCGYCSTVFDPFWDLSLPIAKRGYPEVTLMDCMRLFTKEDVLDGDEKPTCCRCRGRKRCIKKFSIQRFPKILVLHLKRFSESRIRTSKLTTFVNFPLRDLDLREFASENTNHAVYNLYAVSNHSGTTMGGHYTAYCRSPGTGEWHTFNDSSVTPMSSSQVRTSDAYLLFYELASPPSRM
Experimental: as §3, §1, §2

BRISC [2] = molecular target: T1, BRISC; assay: Compound library screening and hit validation (IQF diubiquitin, 1 nM BRISC); details: for BRISC, normalised activity (Ext. 1a): two replicate columns
Experimental: as §3, with “Assays” for “BRISC DUB activity was measured at room temperature using 1 nM BRISC and 500 nM IQF diubiquitin K63 substrate (LifeSensors, DU6303) in the presence of DMSO and compounds at 10 μM (final concentrations). Assays”

[3] = log [compound (μM)] 0.1938, listed as P12
[4] = log [compound (μM)] 0.4949, listed as P12
[5] = log [compound (μM)] 0.7959, listed as P12
[6] = log [compound (μM)] 1.0969, listed as P12
[7] = log [compound (μM)] 1.3979, listed as P12
[8] = log [compound (μM)] 1.6990, listed as P12
[9] = log [compound (μM)] 2.0000, listed as P12
[10] = log [compound (μM)] -0.1072, listed as P12
[11] = log [compound (μM)] -0.4082, listed as P12
[12] = log [compound (μM)] -0.7093, listed as P12
[13] = log [compound (μM)] -1.0103, listed as P12
[14] = log [compound (μM)] -2.0103, normalisation point

- IC50 (BRISC [1]): 5.2 µM
- normalised V0, Mean (BRISC [1]; inhibitor 0.0268861 μM): 1
- normalised V0, Mean (BRISC [1]; inhibitor 0.268861 μM): 0.8889
- normalised V0, Mean (BRISC [1]; inhibitor 0.806584 μM): 0.8346
- normalised V0, Mean (BRISC [1]; inhibitor 2.41975 μM): 0.6971
- normalised V0, Mean (BRISC [1]; inhibitor 7.25926 μM): 0.4496
- normalised V0, Mean (BRISC [1]; inhibitor 21.7778 μM): 0.3208
- normalised V0, Mean (BRISC [1]; inhibitor 65.3333 μM): 0.1744
- normalised V0, Mean (BRISC [1]; inhibitor 196 μM): 0.1298
SMILES: CN1CCC(NC(=O)c2nn(C(=O)c3c(Cl)cccc3Cl)cc2NC(=O)c2c(Cl)cccc2Cl)CC1 [FX-25-1]

- IC50 (BRISC [1]): 21 µM
- normalised V0, Mean (BRISC [1]; inhibitor 0.0268861 μM): 1
- normalised V0, Mean (BRISC [1]; inhibitor 0.268861 μM): 1.082
- normalised V0, Mean (BRISC [1]; inhibitor 0.806584 μM): 1.109
- normalised V0, Mean (BRISC [1]; inhibitor 2.41975 μM): 1.0044
- normalised V0, Mean (BRISC [1]; inhibitor 7.25926 μM): 1.002
- normalised V0, Mean (BRISC [1]; inhibitor 21.7778 μM): 0.6484
- normalised V0, Mean (BRISC [1]; inhibitor 65.3333 μM): 0.3437
- normalised V0, Mean (BRISC [1]; inhibitor 196 μM): 0.2841
SMILES: C[N+]1(C)CCC(NC(=O)c2nn(C(=O)c3c(Cl)cccc3Cl)cc2NC(=O)c2c(Cl)cccc2Cl)CC1 [FX-25-2]

- Mean V0 (BRISC [1]; log[compound (μM)] 0.1938): 0.5385
- Mean V0 (BRISC [1]; log[compound (μM)] 0.4949): 0.3840
- Mean V0 (BRISC [1]; log[compound (μM)] 0.7959): 0.2986
- Mean V0 (BRISC [1]; log[compound (μM)] 1.0969): 0.2014
- Mean V0 (BRISC [1]; log[compound (μM)] 1.3979): 0.1684
- Mean V0 (BRISC [1]; log[compound (μM)] 1.6990): 0.1492
- Mean V0 (BRISC [1]; log[compound (μM)] 2.0000): 0.0500
- Mean V0 (BRISC [1]; log[compound (μM)] 2.3010): 0.0048
- Mean V0 (BRISC [1]; log[compound (μM)] -0.1072): 0.7414
- Mean V0 (BRISC [1]; log[compound (μM)] -1.1072): 0.9992
- Mean V0 (BRISC [1]; log[compound (μM)] -2.0000): 1.0000
SMILES: O=C(NC1CCNCC1)c1nn(C(=O)c2c(Cl)cccc2Cl)cc1NC(=O)c1c(Cl)cccc1Cl [JMS175-2]

- inhibition of USP2 (USP2; IQF K63 diubiquitin substrate): inhibited
- USP2, normalised activity (Ext. 1a) (USP2; [3]): 0.9446 and 0.9072
- USP2, normalised activity (Ext. 1a) (USP2; [4]): 0.7366 and 0.8095
- USP2, normalised activity (Ext. 1a) (USP2; [5]): 0.5989 and 0.5952
- USP2, normalised activity (Ext. 1a) (USP2; [6]): 0.4578 and 0.4777
- USP2, normalised activity (Ext. 1a) (USP2; [7]): 0.2821 and 0.3159
- USP2, normalised activity (Ext. 1a) (USP2; [8]): 0.1157 and 0.1340
- USP2, normalised activity (Ext. 1a) (USP2; [9]): 0.0697 and 0.0548
- USP2, normalised activity (Ext. 1a) (USP2; [10]): 0.9974 and 0.9861
- USP2, normalised activity (Ext. 1a) (USP2; [11]): 1.0145 and 0.9995
- USP2, normalised activity (Ext. 1a) (USP2; [12]): 1.0193 and 1.0736
- USP2, normalised activity (Ext. 1a) (USP2; [13]): 0.9978 and 1.0361
- USP2, normalised activity (Ext. 1a) (USP2; [14]): 1.0000
- inhibition of BRISC, hit validation dose response (BRISC [2]; BRISC 1 nM): inhibited
- BRISC, normalised activity (Ext. 1a) (BRISC [2]; [3]): 0.9184 and 0.9164
- BRISC, normalised activity (Ext. 1a) (BRISC [2]; [4]): 0.8260 and 0.8472
- BRISC, normalised activity (Ext. 1a) (BRISC [2]; [5]): 0.7220 and 0.6802
- BRISC, normalised activity (Ext. 1a) (BRISC [2]; [6]): 0.5475 and 0.6138
- BRISC, normalised activity (Ext. 1a) (BRISC [2]; [7]): 0.4196 and 0.4274
- BRISC, normalised activity (Ext. 1a) (BRISC [2]; [8]): 0.2277 and 0.3017
- BRISC, normalised activity (Ext. 1a) (BRISC [2]; [9]): 0.1348 and 0.1662
- BRISC, normalised activity (Ext. 1a) (BRISC [2]; [10]): 0.9841 and 0.9959
- BRISC, normalised activity (Ext. 1a) (BRISC [2]; [11]): 1.0145 and 0.9950
- BRISC, normalised activity (Ext. 1a) (BRISC [2]; [12]): 0.9264 and 1.0022
- BRISC, normalised activity (Ext. 1a) (BRISC [2]; [13]): 0.9725 and 0.9468
- BRISC, normalised activity (Ext. 1a) (BRISC [2]; [14]): 1.0000
SMILES: Nc1ccc(C(=O)Nc2cccc(-c3nc(N4CCOCC4)c4oc5ncccc5c4n3)c2)cn1 [YM201636, reference compound]
- inhibition of trypsin (trypsin; IQF K63 diubiquitin substrate): inhibited
- TRYPSIN, normalised activity (Ext. 1a) (trypsin; [3]): 0.9684 and 0.9837
- TRYPSIN, normalised activity (Ext. 1a) (trypsin; [4]): 0.8434 and 0.8923
- TRYPSIN, normalised activity (Ext. 1a) (trypsin; [5]): 0.6993 and 0.7044
- TRYPSIN, normalised activity (Ext. 1a) (trypsin; [6]): 0.6731 and 0.7139
- TRYPSIN, normalised activity (Ext. 1a) (trypsin; [7]): 0.4990 and 0.5130
- TRYPSIN, normalised activity (Ext. 1a) (trypsin; [8]): 0.3403 and 0.4535
- TRYPSIN, normalised activity (Ext. 1a) (trypsin; [9]): 0.3318 and 0.3209
- TRYPSIN, normalised activity (Ext. 1a) (trypsin; [10]): 1.0347 and 0.9747
- TRYPSIN, normalised activity (Ext. 1a) (trypsin; [11]): 1.0259 and 0.9266
- TRYPSIN, normalised activity (Ext. 1a) (trypsin; [12]): 0.9472 and 0.9474
- TRYPSIN, normalised activity (Ext. 1a) (trypsin; [13]): 0.9224 and 0.9184
- TRYPSIN, normalised activity (Ext. 1a) (trypsin; [14]): 1.0000
